Data on seven molecules can be found in patent US9801388B2, “Method for a pesticide having an insecticide, acaricide and nematicide action based on isoquinoline alkaloids and flavonoids” (PROMOTORA TECNICA INDUSTRIAL, S.A. DE C.V., priority 2011, dated 2017).

The test system of data set [1] is insects of the genus Bemisia. Description: In vitro (laboratory) evaluation of effectiveness against Bemisia. It counts as in vivo. The note with it: dose 2 mL/L (recommended by the manufacturer), 24 hours after application. How it is done: In the laboratory assay both products were diluted to 5 mL of the formulation in 1 L of distilled water, and they were applied against insects of the genus Bemisia. To compare the effectiveness of the formulation distilled water was also applied as an absolute control and bifenthrin ([1a,3a-(Z)]-(±)-(2methyl[1,1′-biphenyl]-3-il)methyl-3-(2-cloro-3,3,3-trifluorine-1-propenyl-2,2-dimethyl cyclopropanecarboxylate) was applied as a commercial control. The application of the formulation was performed in laboratory conditions using devices to keep the specimens under observation. The effectiveness evaluation was carried out 24 hours after the application.
The experimental unit consisted of four devices that were kept at 26 (±2° C.). Three repetitions of each evaluation were performed.
In Table VI, the effectiveness observed in insects of the genus Bemisia after 24 hours of observation with each of the treatments is detailed. The dose of the commercial control (Bifenthrin) was that recommended by the manufacturer.

Data set [2] deals with nematodes of the genus Meloidogyne. Description: In vitro evaluation of effectiveness against Meloidogyne nematodes. It is filed as in vivo. The note with it: dilution 1:200, after 48 hours. How it is done: The nematicide capacity of formulation 2 was evaluated; a satisfactory percentage after 48 hours was obtained.
In the next data set the test system is Diaphorina sp nymphs. Description: Field evaluation of effectiveness against Diaphorina sp nymphs in Citrus sp. crop. It is filed as in vivo. The note with it: dose 5 mL/L. How it is done: (§1) In accordance with the effectiveness percentages mentioned above, both of the developed products show a significant effectiveness to control insects belonging to the genus Bemisia. The evaluation was carried out four days after the application. The formulations were also applied to observe their effectiveness in the crop of Citrus sp. in controlling two pest species: Diaphorina sp. (adult and nymph) and mites of the genus Polyphagotarsonemus.
(§2) Table III describes the effectiveness of the above mentioned treatments in controlling Diaphorina sp. nymphs.

For another data set, the system named is Diaphorina sp adults. Description: Field evaluation of effectiveness against Diaphorina sp adults in Citrus sp. crop. It is filed as in vivo. Particulars: dose 5 mL/L. How it is done:
as §1, §2

For a further data set, the system named is humans. The note with it: toxic for humans; cited from earlier work.
The subject of a further data set is mammals. Particulars: toxic for mammals; cited from earlier work.
The next data set relates to larvae of genus Plutella. Description: Field evaluation of effectiveness against Plutella larvae in Brassica oleracea crop. It counts as in vivo. Particulars: dose 100 mL/Ha, fourth day after application. How it is done: With the Brassica oleracea crop assessments of the control of larvae of the Plutella genus was performed, the results of this assessment are shown in Table V. The assessment was carried out the fourth day after the application.

Turning to `Cc1c(COC(=O)[C@@H]2[C@H](/C=C(\Cl)C(F)(F)F)C2(C)C)cccc1-c1ccccc1` (racemic) [Bifenthrin, [1a,3a-(Z)]-(±)-(2methyl[1,1′-biphenyl]-3-il)methyl-3-(2-cloro-3,3,3-trifluorine-1-propenyl-2,2-dimethyl cyclopropanecarboxylate], the Effectiveness % in data set [1] is listed as 97.18%.
Molecule `CNC(=O)Oc1cccc2c1OC(C)(C)C2` [Carbofuran] showed an Effectiveness % in data set [2] of 100%.
Turning to `CNC(=O)CSP(=S)(OC)OC` [Dimethoate], the Effectiveness % in the data set with Diaphorina sp nymphs and in the data set on Diaphorina sp adults was 100% each time.
For the molecule `C=C(C)[C@H]1Cc2c(ccc3c2O[C@@H]2COc4cc(OC)c(OC)cc4[C@@H]2C3=O)O1` [Rotenone], in the data set with humans, the DL50 is 132 mg/kg.
With `C/C=C(/C)C(=O)O[C@H]1CC[C@@]2(C)[C@@H]3CC[C@H]4[C@]5(O)C[C@H](O)[C@@]6(O)[C@@H](CN7C[C@@H](C)CC[C@H]7[C@@]6(C)O)[C@]5(O)C[C@@]42O[C@]13O` [cevadine], in the data set with mammals, the DL50 is given as 13 mg/kg.
`COc1ccc(C(=O)O[C@H]2CC[C@@]3(C)[C@@H]4CC[C@H]5[C@]6(O)C[C@H](O)[C@@]7(O)[C@@H](CN8C[C@@H](C)CC[C@H]8[C@@]7(C)O)[C@]6(O)C[C@@]53O[C@]24O)cc1OC` [veratridine]: the DL50 with mammals is listed as 13 mg/kg.
On to Spinosad, for which the Effectiveness % with larvae of genus Plutella stood at 52.8%.
